Data published in patent US5179113A, “Treatment of central nervous disorders with imidazole compounds” (E. I. Du Pont de Nemours and Company, priority 1991, dated 1993).
“Also recorded” adds a separate entry of the source. Structures can show the parent of a compound that is named as a salt.

How the values were obtained:
[1] = tested on: male Sprague-Dawley rats (renin-induced amnesia); experiment: Renin-disrupted passive avoidance retention; type: in vivo, rat; settings: for effect on renin-induced amnesia (in words): co-administered with renin IVT
Description: Experimentally naive male Sprague-Dawley rats […] (Charles River Breeding Laboratories, Kingston, N.Y.), weighing between 175 to 200 gm were used. The animals were housed four per cage (45.0(L)×20.0(H)×26.0(W) cm) with free access to food and water. They were maintained on a 12 h light/dark cycle (lights on 600 h) and at a room temperature of 22°±1° C. with relative humidity of 50±10%. The experimental sessions were conducted in a two-compartment passive avoidance box. One compartment, made of clear plastic with a perforated clear plastic floor, measured 21(L)×24.5(H)×17(W) cm and was illuminated with a 60 watt incandescent light bulb placed 36 cm above the floor. The other compartment, made of black plastic, measured 30.5(L)×20.3(H)×21.5(W) cm with a floor made of 4 mm stainless steel rods spaced 1.2 cm apart. A grid floor shocker (Coulbourn Instruments) was connected to the steel rods and provided scrambled footshock. The two compartments were separated by a solenoid-operated slide door (Lafayette Instrument Co., Lafayette, Ind.). An electronic counter (Coulbourn Instruments), triggered by the opening or closing of the slide door, recorded acquisition and retention latencies (latencies were defined as the time it took an animal to enter the dark compartment). Passive avoidance training began by placing the rat into the clear compartment of the two-compartment passive avoidance box. Following a 10 sec delay, the slide door to the dark compartment was raised. Once the rat moved completely into the dark compartment (all four paws on the shock grid floor) the slide door was lowered, and after a 10 sec delay, a 1.0 mA shock was applied to the grid floor for three sec. A second three sec shock was delivered after an additional 10 sec delay. The rats were immediately removed from the dark compartment and returned to their home cage. A retention test was given 24 h later. It proceeded in the same manner as the training session except that no shock was applied to the grid floor when the rats were provided access to the dark compartment for a maximum of 300 sec. […] All drugs were administered IVT 60 minutes prior to acquisition training in a volume of 5 μl. Doses are expressed as the free base weight of each compound.

AII-1 receptor = experiment: AII receptor antagonism, subtype AII-1, as stated; settings: stated in words, no data
[2] = tested on: retention of a passive avoidance (PA) response in rats; settings: injected into dorsal neostriatum; Morgan and Routtenberg 1977; cited from earlier work
[3] = tested on: release of ACh in entorhinal cortex from rat brain; settings: in vitro; Barnes et al. 1989; cited from earlier work
[4] = tested on: AII-2 receptors in the brain; experiment: Binding of AII antagonists to brain slices, AII-2 sites; settings: majority of binding sites
[5] = tested on: eight arm radial maze performance in rats; settings: 3 mg/kg IP; Usinger et al. 1988; cited from earlier work
[6] = tested on: memory of previously learned tasks; settings: EP 288,907; cited from earlier work
[7] = tested on: AII receptor subtype-2 (AII-2); settings: rat adrenal cortex; cited from earlier work
[8] = tested on: AII-1 receptors in the brain; experiment: Binding of AII antagonists to brain slices, AII-1 sites; settings: clusters of AII-1 sites
[9] = tested on: AII receptor subtype-1 (AII-1); settings: rat adrenal cortex; cited from earlier work
[10] = tested on: AII in cerebrospinal fluid (CSF); settings: renin into lateral ventricle; AII increased from 40; Koller et al. 1975; cited from earlier work

## CCCc1nc(C(F)(F)F)c(C(=O)O)n1Cc1ccc(-c2ccccc2-c2nn[nH]n2)cc1 [Compound C, sodium salt of 2-n-propyl-1-[(2'-(1H-tetrazol-5-yl)biphenyl-4-yl)methyl]-4-trifluoromethylimidazole-5-carboxylic acid]
[1]
  effect on renin-induced amnesia (in words): protected against the amnesia
AII-1 receptor
  AII-1 receptor antagonism: AII-1 receptor antagonists

## AII: Angiotensin-II, circulating hormone thought to act as a neuropeptide in the CNS (DRVYIHPF; Angiotensin-2; UniProt P01019 25-32, looked up)
[2]
  effect on retention of PA response: disruption in retention of a PA response
[3]
  effect on basal ACh levels: without effects on basal levels

## C[C@H](CS)C(=O)N1CCC[C@H]1C(=O)O [captopril]
[1]
  effect on renin-induced amnesia (in words): prevented

## Cc1cc(Cn2cnc3c2CC(C(=O)O)N(C(=O)C(c2ccccc2)c2ccccc2)C3)ccc1N (stereo not drawn) [EXP655, 1-(4-amino-3-methylphenyl)methyl-5-diphenylacetyl-4,5,6,7-tetrahydro-1H-imidazo[4,5-c]pyridine-6-carboxylic acid]
[4]
  sensitivity of AII-2 binding sites in brain: EXP655-sensitive
[1]
  effect on renin-induced amnesia (in words): much less effective in preventing the amnesia

## CCCc1nc(C(F)(F)F)c(CO)n1Cc1ccc(-c2ccccc2-c2nn[nH]n2)cc1 [Compound D, sodium salt of 2-n-propyl-5-hydroxymethyl-1-[(2'-(1H-tetrazol-5-yl)biphenyl-4-yl)methyl]-4-trifluoromethylimidazole]
[1]
  effect on renin-induced amnesia (in words): protected against the amnesia
AII-1 receptor
  AII-1 receptor antagonism: AII-1 receptor antagonists

## AI: AI, compared with AII in ACh release (DRVYIHPFHL; Angiotensin-1; UniProt P01019 25-34, looked up)
[3]
  effect on potassium-stimulated release of ACh: not AI

## lysine-8-vasopressin
[2]
  effect on retention of PA response: no effect

## CCOC(=O)C(CCc1ccccc1)NC(C)C(=O)N1CC2(CC3CCC2CC3)CC1C(=O)O (stereo not drawn) [Hoe 288]
[5]
  effect on muscarinic receptor blockade on performance: partially antagonized the effects of muscarinic receptor blockade on performance

## NCCCC[C@H](OP(=O)(O)CCCCc1ccccc1)C(=O)N1CCC[C@H]1C(=O)O [SQ 29852]
[6]
  effect on an anticholinergic effect on performance: ameliorate, at least in part

## [1-sarcosine, 8-threonine]angiotensin-II
[3]
  effect on AII-induced reduction of ACh release: antagonized

## O[C@H](CS)[C@H](O)CS (racemic) [DTT, dithiothreitol]
[7]
  sensitivity of AII-2 receptor to inactivation by DTT: resistant to DTT inactivation
[8]
  sensitivity of AII-1 binding sites in brain: DTT-sensitive
[4]
  sensitivity of AII-2 binding sites in brain: DTT-insensitive
[9]
  sensitivity of AII-1 receptor to inactivation by DTT: particularly sensitive to inactivation

## NC(=O)[C@@H]1CCCN1C(=O)[C@H](Cc1cnc[nH]1)NC(=O)[C@@H]1CCC(=O)N1 [thyrotropin releasing hormone]
[2]
  effect on retention of PA response: no effect

B1: renin: Renin (Sigma Chemicals), a stimulator of endogenous AII biosynthesis (protein, UniProt P00797 67-406, looked up)
Renin: LTLGNTTSSVILTNYMDTQYYGEIGIGTPPQTFKVVFDTGSSNVWVPSSKCSRLYTACVYHKLFDASDSSSYKHNGTELTLRYSTGTVSGFLSQDIITVGGITVTQMFGEVTEMPALPFMLAEFDGVVGMGFIEQAIGRVTPIFDNIISQGVLKEDVFSFYYNRDSENSQSLGGQIVLGGSDPQHYEGNFHYINLIKTGVWQIQMKGVSVGSSTLLCEDGCLALVDTGASYISGSTSSIEKLMEALGAKKRLFDYVVKCNEGPTLPDISFHLGGKEYTLTSADYVFQESYSSKKLCTLAIHAMDIPPPTGPTWALGATFIRKFYTEFDRRNNRIGFALAR
[10]
  AII in CSF after renin: about 5000 fmol per mL
[1]; IVT, passive avoidance
  memory deficit / amnesia produced by renin (in words): produces a reliable memory deficit in rats; also recorded: dose-related amnesia in a PA task
